Experimental data taken from patent US10995068B2, “Synthetic sphingolipid-like molecules, drugs, methods of their synthesis and methods of treatment” (The Regents of the University of California, priority 2015, dated 2021).

Columns and labels:
Assay type in all cases: in vivo
[1] = Blood cell count of pDKO mice; conditions: for % lymphocyte / % neutrophil / Red Blood Cells / White Blood Cells / Hematocrit: pDKO mice, at sacrifice; for White Blood Cells: Means ± SEM, n = 4; for Hematocrit: in % (unit assumed)
Method: (§1) In vivo studies. Experiments conducted in mice were performed in accordance with the Institutional Animal Care and Use Committee of University of California, Irvine following a power analysis conducted in consultation with the Biostatistics Shared Resource of Chao Family Comprehensive Cancer Center at UCI. Xenografts were produced by injecting 5 million cells subcutaneously in the flank of 10-16 week-old male or female NSG mice. Prostate isografts were produced in the same manner but in male 6-8 wk old C57BL/6 mice. Once tumors reached 100 mm^3, SH-BC-893 was administered by intraperitoneal (i.p.) injection or oral gavage as indicated. Tumor volume was calculated using the formula, volume (mm^3)=length [mm]×(width [mm])^2×0.52; BLI was measured using an IVIS imaging system (Xenogen). To generate pDKO mice on the C57BL6 background, Pten^flox mice (stock No. 0045597) and p53^flox mice (stock No. 008462) were obtained from the Jackson Laboratory and PB-Cre4 mice (strain #01XF5) were obtained from the NCI-Frederick Mouse Repository. Age-matched cohorts of pDKO males were generated by in vitro fertilization executed with the assistance of the Transgenic Mouse Facility at UC Irvine. Treatment was begun at 6-7 wks of age. […] Tumor samples were processed and imaged by the Pathology Research Services Core Facility at UC Irvine. Blood chemistry was analyzed by IDEXX BioResearch and complete blood counts were performed using a Hemavet hematology system.

[2] = test system: autochthonous prostate tumor (pDKO); assay: pDKO autochthonous prostate cancer mouse model
Method: To determine the sensitivity, SH-BC-893 was evaluated in a validated genetically-engineered mouse model for invasive castration-resistant prostate cancer that lacks p53 and PTEN expression exclusively in the prostate (pDKO) (Wu X, et al. Am J Clin Exp Urol. 2014; 2(2):111-20; Schwarzenböck S, et al. Theranostics. 2012; 2(3):318-330; Chen Z, et al. Nature. 2005; 436(7051):725-730; the disclosures of which are herein incorporated by reference). […] SH-BC-893, however, still produced a phenotype consistent with starvation as the bound NADH fraction increased and cell permeant nutrients protected mPCE cells from death (FIGS. 65A and 65C). Prostate cancer cells depend on exogenous LDL for growth and survival. […] Ceramide and YM201636 both reduced surface LDLr levels, but LDLr still accumulated in different intracellular compartments (FIG. 66A). Consistent with their ability to block lysosomal fusion (FIG. 61), both YM201636 and SH-BC-893 reduced LDL co-localization with Lysotracker Blue (FIGS. 65F and 65G). In keeping with the inhibition of LDL degradation in lysosomes, cellular lipid droplet content was inversely correlated with the extent of vacuolation (FIG. 66B). In summary, sphingolipid-like compounds, such as SH-BC-893, starve slow-growing neoplasms, such prostate cancer, by down-regulating nutrient transporters and blocking lysosomal nutrient generation.
(§2) The ability of starvation-inducing sphingolipid-like drugs to affect the growth of slow growing or autochthonous neoplasms was also evaluated. In C57BL/6 mice bearing mPCE subcutaneous isografts, 60 mg/kg SH-BC-893 was given daily by gavage and slowed tumor growth by 60% similar to results with SW620 xenografts dosed with 20 mg/kg i.p. (FIGS. 53G-I and 65I). At 120 mg/kg, SH-BC-893 inhibited prostate tumor growth by more than 90% (FIG. 65I). […] Akt activity was slightly elevated by SH-BC-893 consistent with loss of TORC1-mediated negative feedback. Thus, sphingolipid-like compounds, such as SH-BC-893, are effective against neoplasms with distinct molecular defects and metabolic characteristics.
SH-BC-893 produces equivalent transporter loss and vacuolation in normal and transformed cells and therefore also limits the access of normal cells to nutrients (FIGS. 51C, 51E, 56B and 56C). […] The lack of toxicity to normal tissues is consistent with the finding that non-transformed cells can adapt to nutrient stress that triggers a bioenergetic crisis in less metabolically flexible tumor cells (FIGS. 53D and 53E).
as §1

[3] = test system: mPCE subcutaneous isografts; assay: mPCE subcutaneous prostate isografts; conditions: C57BL/6 mice
Method: as §2
In vivo studies. Experiments conducted in mice were performed in accordance with the Institutional Animal Care and Use Committee of University of California, Irvine following a power analysis conducted in consultation with the Biostatistics Shared Resource of Chao Family Comprehensive Cancer Center at UCI. […] Tumor volume was calculated using the formula, volume (mm^3)=length [mm]×(width [mm])^2×0.52; BLI was measured using an IVIS imaging system (Xenogen). […] Blood chemistry was analyzed by IDEXX BioResearch and complete blood counts were performed using a Hemavet hematology system.

[4] = Mass spectrometry quantification of SH-BC-893 in plasma and tumor; conditions: SW620 xenograft mice, UPLC-MS/MS
Method: In many embodiments, exemplary experimentation was carried out to determine whether azacyclic constrained sphingolipid-lipid molecules inhibited neoplastic growth in vivo. To carry out this experimentation, luciferase-expressing SW620 xenografts were generated in mice.
Mass spectrometry quantification of SH-BC-893. As an internal standard, 75 ng FTY720 was added to 50 μl plasma or 50 μl of tumor homogenate (0.25 M sucrose, 25 mM KCl, 50 mM Tris HCl, 0.5 mM EDTA, pH 7.4; 1:9 wt:volume) combined 1:1 with acetonitrile. Proteins were precipitated and removed by centrifugation (10 min at 15,000 rpm) and the supernatant transferred to a fresh tube on ice containing 50 μl of acetonitrile+0.2% acetic acid. After a second de-proteination with acetonitrile+0.2% acetic acid, 20 μl of de-proteinated samples were analyzed by UPLC-MS/MS using a Waters Micromass Quattro Premier XE equipped with a C18 reversed phase column (Waters) with an acetonitrile+0.2% acetic acid gradient elution. The instrument was operated in positive ion mode. Ion transition channels for multiple reaction monitoring were 290→104 for SH-BC-893 with a dwell time of 200 msec. The cone voltage was 30V. Standard curves used for quantitation were linear from 50-1000 ng/ml with an R^2 of 0.98 or greater. Recovery of internal standard was >80%. Tumor concentrations were calculated assuming that 1 gm=1 mL.

[5] = mice treated with 120 mg/kg for 11 weeks

## CCCCCCCCc1ccc([C@H]2CCN[C@@H]2CO)cc1.Cl [Compound 5, (2S,3R)-2-(hydroxymethyl)-3-(4-octylphenyl)Pyrrolidinium chloride]
[1]; [5]
  complete blood counts (in words): normal complete blood counts
[1]; 60 mg/kg
  % lymphocyte: 77 ± 4%
  % neutrophil: 14 ± 3%
  Red Blood Cells: 8 ± 1 M/μL
  White Blood Cells: 5 ± 1 10^3 cells/μL
  Hematocrit: 32 ± 5
[1]; 120 mg/kg
  % lymphocyte: 73 ± 5%
  % neutrophil: 19 ± 5%
  Red Blood Cells: 9 ± 1 M/μL
  White Blood Cells: 8 ± 1 10^3 cells/μL
  Hematocrit: 41 ± 3
[2]; [5]
  histopathology of intestinal crypts: normal
[2]; pDKO mice
  weight gain: gained less weight than untreated mice
[2]; pDKO mice, 60 mg/kg
  decrease of autochthonous tumor growth: 62%
[2]; pDKO mice, 120 mg/kg
  decrease of autochthonous tumor growth: 82%
[2]; pDKO mice, treated mice exclusively exhibited prostatic intraepithelial neoplasia
  prostate tumor progression, histology: slowed prostate tumor progression
[2]; treated prostate tumors
  TORC1-dependent ribosomal protein S6 phosphorylation in tumors: reduced
[3]; 60 mg/kg daily by gavage
  slowing of tumor growth: 60%
[3]; 120 mg/kg
  inhibition of prostate tumor growth: more than 90%
[4]
  concentration in plasma at sacrifice: low micromolar concentrations
  concentration in tumors at sacrifice: low micromolar concentrations
